Test [1] deals with His-tagged KRAS G12D protein (Homo sapiens, UniProt P01116, G12D). The test is described as follows: KRAS G12D TR-FRET Assay. In kind it is binding.
For test [2], the system named is Phosphorylation of ERK1/2 in A-427 cells. The test is described as follows: Phospho-ERK1/2 MSD Assay (A-427 cells). The format is cell-based. Particulars: Homo sapiens, A-427, 2 h, 2 h treatment, read-out: p-ERK (A427 cells) IC50. As to the method: A-427 (ATCC® HTB-53™) cells were cultured in RPMI 1640 Medium (ThermoFisher Scientific 11875093) containing 10% fetal bovine serum (ThermoFisher Scientific 16000044) and 1× penicillin-streptomycin-glutamine (ThermoFisher Scientific 10378016). Sixteen hours prior to compound treatment, A-427 cells were seeded in 96-well cell culture plates at a density of 25,000 cells/well and incubated at 37° C., 5% CO2. A compound dose-response titration was diluted in growth media, added to appropriate wells of a cell culture plate, and then incubated at 37° C., 5% CO2 for 2 h. Following compound treatment, cells were washed with ice-cold Dulbecco's phosphate-buffered saline, no Ca^2+ or Mg^2+ (ThermoFisher Scientific 14190144), and then lysed in RIPA buffer (50 mM Tris-HCl pH 7.5, 1% Igepal, 0.5% sodium deoxycholate, 150 mM NaCl, and 0.5% sodium dodecyl sulfate) containing protease inhibitors (Roche 4693132001) and phosphatase inhibitors (Roche 4906837001). Phosphorylation of ERK1/2 in compound-treated lysates was assayed using Phospho-ERK1/2 Whole Cell Lysate kits (Meso Scale Discovery K151DWD) according to the manufacturer's protocol. Assay plates were read on a Meso Scale Discovery Sector Imager 6000, and data were analyzed using a 4-parameter logistic model to calculate IC50 values.

Test [3] has as its system Phosphorylation of ERK1/2 in AsPC-1 cells. The test is described as follows: Phospho-ERK1/2 MSD Assay (AsPC-1 cells). To be noted: Homo sapiens, ASPC1, 2 h, 2 hours treatment, read-out: p-ERK (AsPC-1 cells) IC50. In kind it is cell-based. The essentials:
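Read-out: MSD electrochemiluminescent detection of phosphorylated ERK1/2 in whole-cell lysates, fitted to a 4-parameter logistic curve for IC50. Prior to lysis, AsPC-1 cells (25,000 per well) received a 2 h compound dose-response at 37 °C.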

The target of test [4] is GDP-bound KRAS protein (aa 1-169), containing both G12D and C118A amino acid substitutions (Homo sapiens, UniProt P01116, C118A/G12D). In words: KRAS G12D Coupled Nucleotide Exchange Assay. In kind it is biochemical. Particulars: 2 h compound pre-incubation. Here is the method: Following compound pre-incubation, purified SOS protein (aa 564-1049) and GTP (Roche 10106399001) were added to the assay wells and incubated for an additional 30 min. […] The assay plates were then read on a PerkinElmer EnVision Multilabel Reader, using AlphaScreen® technology, and data were analyzed using a 4-parameter logistic model to calculate IC50 values.
Chain of GDP-bound KRAS protein (aa 1-169), containing both G12D and C118A amino acid substitutions (P01116 1-169 isoform P01116-2 G12D/C118A): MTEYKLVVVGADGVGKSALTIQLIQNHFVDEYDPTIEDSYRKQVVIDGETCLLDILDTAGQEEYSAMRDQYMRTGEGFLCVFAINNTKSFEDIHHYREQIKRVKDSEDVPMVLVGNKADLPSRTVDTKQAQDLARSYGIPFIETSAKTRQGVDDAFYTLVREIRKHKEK

Chain of His-tagged KRAS G12D protein (P01116 1-188 isoform P01116-2 G12D): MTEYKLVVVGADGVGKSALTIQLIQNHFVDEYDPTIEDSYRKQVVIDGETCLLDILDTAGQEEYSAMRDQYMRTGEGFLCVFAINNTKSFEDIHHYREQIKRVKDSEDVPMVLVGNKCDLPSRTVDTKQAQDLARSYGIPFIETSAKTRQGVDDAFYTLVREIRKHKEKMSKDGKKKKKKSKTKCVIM

With `CN1C[C@H](F)C[C@H]1COc1nc(N2C[C@H]3C[C@@H](C2)N3)c2cc(F)c(-c3cc(O)cc4ccccc34)c(F)c2n1` [Example 19, 4-(4-((1R,5S)-3,6-diazabicyclo[3.1. 1]heptan-3-yl)-6,8-difluoro-2-(((2S,4R)-4-fluoro-1-methylpyrrolidin-2-yl)methoxy)quinazolin-7-yl)naphthalen-2-ol], the results for the IC50 in test [1], in test [2] and in test [3] were 58 nM, 1790 nM and 2090 nM, respectively. The “Avg 2 h Coupled Exchange IC50” value in test [4] amounted to 28 nM.
For `Oc1cc(-c2c(F)cc3c(N4C[C@H]5C[C@@H](C4)N5)nc(OCC45CCCN4CC(F)(F)C5)nc3c2F)c2ccccc2c1` (stereo partly drawn) [Example 20, 4-(4-((1R,5S)-3,6-diazabicyclo[3.1. 1]heptan-3-yl)-2-((2,2-difluorotetrahydro-1H-pyrrolizin-7a(5H)-yl)methoxy)-6,8-difluoroquinazolin-7-yl)naphthalen-2-ol] the same measures were 87 nM, 7280 nM, 5560 nM and 40 nM.
The like results for `CN1CCC[C@H]1CCOc1nc(N2C[C@H]3C[C@@H](C2)N3)c2cc(F)c(-c3cc(O)cc4ccccc34)c(F)c2n1` [Example 21, 4-(4-((1R,5S)-3,6-diazabicyclo[3.1. 1]heptan-3-yl)-6,8-difluoro-2-(2-((S)-1-methylpyrrolidin-2-yl)ethoxy)quinazolin-7-yl)naphthalen-2-ol] were, in that order, 314 nM, 18100 nM, 9080 nM and 78 nM.
For `Fc1cc2c(N3[C@@H]4CC[C@H]3CNC4)nc(OC[C@@]34CCCN3C[C@H](F)C4)nc2c(F)c1-c1cccc2cccc(Cl)c12` [Example 22, 4-((1R,5S)-3,8-diazabicyclo[3.2. 1]octan-8-yl)-7-(8-chloronaphthalen-1-yl)-6,8-difluoro-2-(((2R,7aS)-2-fluorotetrahydro-1H-pyrrolizin-7a(5H)-yl)methoxy) quinazoline] the same measures were 17 nM, 2660 nM, 2350 nM and 14 nM.
For the compound `Cc1cccc2cccc(-c3c(F)cc4c(N5[C@@H]6CC[C@H]5CNC6)nc(OC[C@@]56CCCN5C[C@H](F)C6)nc4c3F)c12` [Example 23, 4-((1R,5S)-3,8-diazabicyclo[3.2. 1]octan-8-yl)-6,8-difluoro-2-(((2R,7aS)-2-fluorotetrahydro-1H-pyrrolizin-7a(5H)-yl)methoxy)-7-(8-methylnaphthalen-1-yl)quinazoline], the IC50 amounted to 44 nM in test [1], 10300 nM in test [2] and 2600 nM in test [3]. The “Avg 2 h Coupled Exchange IC50” value in test [4] amounted to 19 nM.
The like results for `Fc1c(-c2cccc3cccc(Cl)c23)ccc2c(N3[C@@H]4CC[C@H]3CNC4)nc(OC[C@@]34CCCN3C[C@H](F)C4)nc12` [Example 24, 4-((1R,5S)-3,8-diazabicyclo[3.2. 1]octan-8-yl)-7-(8-chloronaphthalen-1-yl)-8-fluoro-2-(((2R,7aS)-2-fluorotetrahydro-1H-pyrrolizin-7a(5H)-yl)methoxy) quinazoline] were, in that order, 31 nM, 3910 nM, 1390 nM and 16 nM.
As to `Oc1cc(-c2ccc3c(N4[C@@H]5CC[C@H]4CNC5)nc(OC[C@@]45CCCN4C[C@H](F)C5)nc3c2F)c2ncccc2c1` [Example 25, 8-(4-((1R,5S)-3,8-diazabicyclo[3.2. 1]octan-8-yl)-8-fluoro-2-(((2R,7aS)-2-fluorotetrahydro-1H-pyrrolizin-7a(5H)-yl)methoxy)quinazolin-7-yl)quinolin-6-ol], the IC50 was found to be 58 nM in test [1], 5050 nM in test [2] and 14800 nM in test [3]. In addition, the “Avg 2 h Coupled Exchange IC50” value in test [4] was found to be 17 nM.
For `Nc1cc(-c2ccc3c(N4[C@@H]5CC[C@H]4CNC5)nc(OC[C@@]45CCCN4C[C@H](F)C5)nc3c2F)c2ccccc2c1` [Example 26, 4-(4-((1R,5S)-3,8-diazabicyclo[3.2. 1]octan-8-yl)-8-fluoro-2-(((2R,7aS)-2-fluorotetrahydro-1H-pyrrolizin-7a(5H)-yl)methoxy)quinazolin-7-yl)naphthalen-2-amine] the same measures were 34 nM, 1110 nM, 692 nM and 18 nM.
As to `Oc1cc(-c2c(F)cc3c(N4[C@@H]5CC[C@H]4CNC5)nc(OC[C@@]45CCCN4C[C@H](F)C5)nc3c2F)c2ncccc2c1` [Example 27, 8-(4-((1R,5S)-3,8-diazabicyclo[3.2. 1]octan-8-yl)-6,8-difluoro-2-(((2R,7aS)-2-fluorotetrahydro-1H-pyrrolizin-7a(5H)-yl)methoxy)quinazolin-7-yl)quinolin-6-ol], the IC50 stood at 47 nM in test [1], 865 nM in test [2] and 5230 nM in test [3]. The “Avg 2 h Coupled Exchange IC50” value in test [4] is 21 nM.
As for `Cc1cccc2cccc(-c3ccc4c(N5[C@@H]6CC[C@H]5CNC6)nc(OC[C@@]56CCCN5C[C@H](F)C6)nc4c3F)c12` [Example 28, 4-((1R,5S)-3,8-diazabicyclo[3.2. 1]octan-8-yl)-8-fluoro-2-(((2R,7aS)-2-fluorotetrahydro-1H-pyrrolizin-7a(5H)-yl)methoxy)-7-(8-methylnaphthalen-1-yl)quinazoline], the IC50 is 90 nM in test [1], greater than 10000 nM in test [2] and 3610 nM in test [3]. Moreover, in test [4], the “Avg 2 h Coupled Exchange IC50” value was 44 nM.
Regarding `Oc1cc(-c2ccc3c(N4[C@@H]5CC[C@H]4CNC5)nc(OC[C@@]45CCCN4C[C@H](F)C5)nc3c2F)c2cccnc2c1` [Example 29, 5-(4-((1R,5S)-3,8-diazabicyclo[3.2. 1]octan-8-yl)-8-fluoro-2-(((2R,7aS)-2-fluorotetrahydro-1H-pyrrolizin-7a(5H)-yl)methoxy)quinazolin-7-yl)quinolin-7-ol], the IC50 in test [1] was 161 nM; in test [2] it was greater than 10000 nM; in test [3], 10000 nM. In test [4], the “Avg 2 h Coupled Exchange IC50” value was determined as 80 nM.
`CN1C[C@H](F)C[C@H]1COc1nc(N2[C@@H]3CC[C@H]2CNC3)c2cc(F)c(-c3cc(O)cc4cccnc34)c(F)c2n1` [Example 30, 8-(4-((1R,5S)-3,8-diazabicyclo[3.2. 1]octan-8-yl)-6,8-difluoro-2-(((2S,4R)-4-fluoro-1-methylpyrrolidin-2-yl)methoxy)quinazolin-7-yl)quinolin-6-ol]: the results for the IC50 in test [1], in test [2] and in test [3] were 559 nM, 17700 nM and 21500 nM, respectively. For the same compound, the “Avg 2 h Coupled Exchange IC50” value in test [4] worked out at 158 nM.
For `Cc1c(-c2cc(O)cc3ccccc23)ccc2c(N3C[C@H]4CC[C@@H](C3)N4)nc(OC[C@@]34CCCN3C[C@H](F)C4)nc12` [Example 33, 4-(4-((1R,5S)-3,8-diazabicyclo[3.2. 1]octan-3-yl)-2-(((2R,7aS)-2-fluorotetrahydro-1H-pyrrolizin-7a(5H)-yl)methoxy)-8-methylquinazolin-7-yl)naphthalen-2-ol] the same measures were 8 nM, 291 nM, 509 nM and 3 nM.
As for `Cc1c(-c2cc(O)cc3ccccc23)ccc2c(N3[C@@H]4CC[C@H]3CNC4)nc(OC[C@@]34CCCN3C[C@H](F)C4)nc12` [Example 34, 4-(4-((1R,5S)-3,8-diazabicyclo[3.2. 1]octan-8-yl)-2-(((2R,7aS)-2-fluorotetrahydro-1H-pyrrolizin-7a(5H)-yl)methoxy)-8-methylquinazolin-7-yl)naphthalen-2-ol], the IC50 in test [1] came out at 47 nM; in test [2] it was 2570 nM; in test [3], 2980 nM. Moreover, in test [4], the “Avg 2 h Coupled Exchange IC50” value was 22 nM.
The like results for `Oc1ccc(Cl)c(-c2ccc3c(N4C[C@H]5CC[C@@H](C4)N5)nc(OC[C@@]45CCCN4C[C@H](F)C5)nc3c2)c1F` [Example 36, 3-(4-((1R,5S)-3,8-diazabicyclo[3.2. 1]octan-3-yl)-2-(((2R,7aS)-2-fluorotetrahydro-1H-pyrrolizin-7a(5H)-yl)methoxy)quinazolin-7-yl)-4-chloro-2-fluorophenol] were, in that order, 483 nM, greater than 10000 nM, greater than 10000 nM and 82 nM.

For the origin of these results see patent publication US20250059205A1, “Heterocyclic Compounds and Methods of Use” (AMGEN INC., priority 2021, published 2025).
